From patent publication US20150336948A1, “Isotopically Labeled Biaryl Urea Compounds” (Merck Sharp & Dohme Corp., priority 2012, published 2015)
Like-named read-outs stand apart in the source and are kept apart here.

How the values were obtained:
[1] = target: T1, In Vitro Assembled Tau filaments (full length tau 4R2N, T40 isoform) (Homo sapiens, UniProt P10636); assay: Displacement binding assay with in vitro assembled tau filaments; conditions: 0.4 uM tau filaments
T1 construct: full length tau monomer (4R2N, T40 isoform)
Procedure: In Vitro assembled tau filaments were prepared similarly to Barghorn et al, Methods Mol Biol. 2005, 299, 35-51.
Briefly, Twenty micromolar (uM) of full length tau monomer (4R2N, T40 isoform), was incubated at 37 degrees shaking for 14 days with 50 uM heparin, 2 mM DTT, and 0.04% sodium azide in 100 mM Sodium Acetate (NaOAC) buffer pH7.0. All concentrations listed are final concentrations. Samples of the mixture were taken at 0, 10, and 14 days, and filament formation was examined using Thioflavin T binding compared to a control sample of filaments.
For the displacement binding assay, compound dilutions (1000×) were added into the 96-well plate (150 nL per well). 100% (1 uM self-block (unlabeled Compound—Example 1 or Example 4 dependent on the ^3H-labeled input compound—Example 6 or 7, respectively)) and 0% (DMSO) controls were included in each assay plate. In Vitro Assembled Tau filaments diluted in assay buffer (PBS+0.1% BSA) were added at a final concentration of 0.4 uM per well. Subsequently, either ^3H compound of Example 7 or ^3H compound of Example 6 was added to each well at a final concentration of 8 nM. Incubation was carried out at room temperature (25° C.) for 90 minutes, and then the assay samples were filtered onto GF/B filter plates that had been blocked at least 1 hour with 50 uL 0.2% PEI using a PerkinElmer Filtermate 96-well plate harvester, washing 6 times with ice cold buffer (5 mM Tris, pH 7.4). Plates were dried in a vacuum oven at 37° C. for 1 hour, then plates were sealed on the back, and 50 ul of Microscint-20 was added to each well. The tops of the plates were sealed, and then plates were read in a PerkinElmer TopCount. Data analysis was performed using internally developed software (Assay Data Analyzer).

NFTs = assay: In vitro autoradiography, human AD brain slice, hippocampus (NFTs, PHF6 stain on adjacent slice); assay type: binding
Procedure: (§1) To assess presence of amyloid plaques and NFTs in the tested human brain samples, the adjacent human AD brain slices were used for autoradiography (ARG) and immunohistochemistry (IHC) studies. ARG was done using isotopically labeled compounds which bind selectively to amyloid plaques or NFTs. IHC was performed with antibodies for amyloid-beta (Aβ) (6E10 (Covance)) and phosphorylated tau (p-tau) (PHF6 (Covance)). Tissue homogenate binding was performed using human AD brain homogenates of cerebral cortex. Human brains from donor without neurological disorder were used as control in the same study. […]
(§2) The frozen human brain samples of Alzheimer's disease (AD) and non-AD were purchased from Analytic Biological Services Inc. Frozen brain slices (20 μm thickness) were prepared using a cryostat (Leica CM3050) and kept in sequential order. […] Total binding of radioligand in a brain slices was defined in the absence of competitor, and non-specific binding (NSB) was determined in the presence of competitor (1.0 μM unlabeled self block). […] After one week exposure, the plates were scanned in Fuji BAS 5000 Scanner, and the scanned images were analyzed using MCID 7.0 software. [^3H]-microscales (Amersham Biosciences, GE), were used for quantification of radioligand binding density. FIGS. 3 and 4 have ARG images detected through this method.

amyloid plaques = assay: In vitro autoradiography, human AD brain cortex slice (amyloid plaques, 6E10 stain on adjacent slice); assay type: binding; conditions: adjacent slice 6E10 positive
Procedure: as §1, §2

[2] = radioligand [3H] Example 7 at 8 nM, read-out: IC50, displacement of [3H] compound of Example 7 from in vitro assembled tau filaments

T1 sequence (P10636 1-441 isoform P10636-8): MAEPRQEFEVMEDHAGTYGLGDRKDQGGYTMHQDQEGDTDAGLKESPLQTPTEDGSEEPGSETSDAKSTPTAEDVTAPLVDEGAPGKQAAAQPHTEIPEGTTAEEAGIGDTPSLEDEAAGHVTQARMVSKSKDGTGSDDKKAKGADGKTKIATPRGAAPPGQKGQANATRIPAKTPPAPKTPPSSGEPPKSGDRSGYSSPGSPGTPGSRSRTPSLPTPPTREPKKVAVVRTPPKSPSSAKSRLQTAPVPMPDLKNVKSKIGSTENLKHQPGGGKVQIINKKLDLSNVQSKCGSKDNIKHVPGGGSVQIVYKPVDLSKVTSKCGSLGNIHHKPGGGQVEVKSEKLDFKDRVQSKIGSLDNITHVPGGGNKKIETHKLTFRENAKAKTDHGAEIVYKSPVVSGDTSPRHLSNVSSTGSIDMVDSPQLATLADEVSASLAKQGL

Row | IC50 [1, 2] [nM] | SMILES | other results
1 | 13.6 | COc1ccccc1NC(=O)Nc1ccc(-c2cn(C)c3cnccc23)cc1 [Example 1, 1-(2-methoxyphenyl)-3-(4-(1-methyl-1H-pyrrolo[2,3-c]pyridin-3-yl)phenyl)urea] | IC50 ([1]; radioligand [3H] Example 6 at 8 nM, self-block, read-out: apparent IC50, inhibition of [3H] compound of Example 6 binding to in vitro assembled filaments): 3 nM
2 | 25.1 | COc1ccccc1NC(=O)Nc1ccc(-c2cnn3c2CCC3)cc1 [Example 2, 1-(4-(5,6-dihydro-4H-pyrrolo[1,2-b]pyrazol-3-yl)phenyl)-3-(2-methoxyphenyl)urea] | 
3 | 33.6 | COc1ccccc1NC(=O)Nc1ccc(-c2cnn(C)c2)cc1 [Example 3, 1-(2-methoxyphenyl)-3-(4-(1-methyl-1H-pyrazol-4-yl)phenyl)urea] | 
4 | 20.2 | COc1ccccc1NC(=O)Nc1ccc(-c2cn(C)c3cnccc23)nc1 [Example 4, 1-(2-methoxyphenyl)-3-(6-(1-methyl-1H-pyrrolo[2,3-c]pyridin-3-yl)pyridin-3-yl)urea] | 
5 | 92 | Cn1cc(-c2ccc(NC(=O)Nc3ccccc3O)cn2)c2ccncc21 [Example 5, 1-(2-hydroxyphenyl)-3-(6-(1-methyl-1H-pyrrolo[2,3-c]pyridin-3-yl)pyridin-3-yl)urea] | 
6 |  | [3H]c1cc(-c2cn(C)c3cnccc23)cc([3H])c1NC(=O)Nc1c([3H])cccc1OC [Example 6, [^3H]-(2-methoxyphenyl)-3-(4-(1-methyl-1H-pyrrolo[2,3-c]pyridin-3-yl)phenyl)urea] | autoradiographic binding pattern compared with PHF6 stain of NFTs in hippocampus (NFTs; 5 nM radioligand, human AD brain slice, adjacent slice IHC): consistent with the autoradiographic binding pattern; specificity for Tau over Aβ (ARG evidence) (NFTs; human AD brain slices, FIGS. 3 and 4): measurable specificity; binding to amyloid plaques in cortex region (autoradiography) (amyloid plaques): lack of
